Laboratory results from patent US5491155A, “Substituted thiadiazoles, compositions containing them and their use as antimicrobial and marine antifouling agents” (The Dow Chemical Company, priority 1994, dated 1996).
≈ marks a conversion by molar mass, not a printed value. Like-named read-outs stand apart in the source and are kept apart here.

How the values were obtained:
Salmonella choleraesuis = test: MIC in nutrient agar, Salmonella choleraesuis; type: cell-based, Salmonella choleraesuis (ATCC 10708); details: Salmonella enterica, Sc, 48 hours, read-out: Minimum Inhibitory Concentration (MIC)
Protocol: (§1) The minimum inhibitory concentration (MIC) for the compounds listed in Table I is determined for bacteria, using nutrient agar, and 7 yeast and fungi, using malt yeast agar. A one percent solution of the test compound is prepared in a mixture of acetone and water.
(§2) Nutrient agar is prepared at pH 6.8, representing a neutral medium, and at pH 8.2, representing an alkaline medium. The nutrient agars are prepared by adding 23 g of nutrient agar to one-liter of deionized water. In addition, the alkaline medium is prepared by adjusting a 0.04M solution of N-(tris-(hydroxymethyl)methyl)glycine buffered deionized water with concentrated sodium hydroxide to a pH of 8.5.
(§3) The test tubes containing the agar are cooled in a water bath until the temperature of the agar is 48° C. Then, an appropriate amount of the one percent solution of the test compound is added (except in the controls where no compound is added) to the respective test tubes so that the final concentrations are 500, 250, 100, 50, 25, 10, 2.5, 1.0 and zero parts per million of the test compound in the agar, thus having a known concentration of test compound dispersed therein. The contents of the test tubes are then transferred to respective petri plates. After drying for 24 hours, the petri plates containing nutrient agar are inoculated with bacteria and those containing malt yeast agar are inoculated with yeast and fungi.
(§4) The inoculation with bacteria is accomplished by using the following procedure. Twenty-four hour-cultures of each of the bacteria are prepared by incubating the respective bacteria in tubes containing nutrient broth for 24 hours at 30° C. in a shaker. Dilutions of each of the 24 hour-cultures are made so that nine separate suspensions (one for each of the nine test bacteria) are made, each containing 10^8 colony forming units (CFU) per mL of suspension of a particular bacteria. Aliquots of 0.3 mL of each of the bacterial suspensions are used to fill the individual wells of Steer's Replicator. For each microbial suspension, 0.3 mL was used to fill three wells (i.e., three wells of 0.3 mL each) so that for the nine different bacteria, 27 wells are filled. The Steer's Replicator is then used to inoculate both the neutral and alkaline pH nutrient agar petri plates.
(§5) The inoculated petri plates are incubated at 30° C. for 48 hours and then read to determine if the test compound which is incorporated into the agar prevented growth of the respective bacteria.
(§6) Table II lists the bacteria, yeast and fungi used in the MIC test described above along with their respective American Type Culture Collection (ATCC) identification numbers.
(§7) In Tables III and IV, the MIC values of the compounds described in Table I as compared to the MIC of a standard commercial preservative (with 1-(3-chloroalkyl)-3,5,7-triaza-1-azoniaadamantane chloride as the active agent and referred to in Tables III and IV as "STANDARD I") are set forth for the bacteria organisms and yeast/fungi organisms which are listed in Table II.

Bacillus subtilis = test: MIC in nutrient agar, Bacillus subtilis; type: cell-based, Bacillus subtilis (ATCC 8473); details: Bs, 48 hours, read-out: Minimum Inhibitory Concentration (MIC)
Protocol: as §1, §2, §3, §4, §5, §6, §7

Enterobacter aerogenes = test: MIC in nutrient agar, Enterobacter aerogenes; type: cell-based, Enterobacter aerogenes (ATCC 13048); details: Klebsiella aerogenes, Ea, 30° C., 48 hours, read-out: Minimum Inhibitory Concentration (MIC)
Protocol: as §1, §2, §3, §4, §5, §6, §7

Proteus vulgaris = test: MIC in nutrient agar, Proteus vulgaris; type: cell-based, Proteus vulgaris (ATCC 881); details: Pv, 48 hours, read-out: Minimum Inhibitory Concentration (MIC)
Protocol: as §1, §2, §3, §4, §5, §6, §7

Candida albicans = test: MIC in malt yeast agar, Candida albicans; type: cell-based, Candida albicans (ATCC 10231); details: Ca; malt yeast agar; 30° C.; 48 hours for yeast; read-out: Minimum Inhibitory Concentration (MIC)
Protocol: as §1
(§8) Malt yeast agar is prepared by adding 3 g yeast extract and 45 g malt agar per liter of deionized water. The specific agar is dispensed in 30 mL aliquots into 25×200 mm test tubes, capped and autoclaved for 15 minutes at 115° C.
as §3
(§9) The inoculation with the yeast and fungi is accomplished as follows. Cultures of yeast and fungi are incubated for seven days on malt yeast agar at 30° C. These cultures are used to prepare suspensions by the following procedure. A suspension of each organism is prepared by adding 10 mL of sterile saline and 10 microliters of octylphenoxy polyethoxy ethanol to the agar slant of yeast or fungi. The sterile saline/octylphenoxy polyethoxy ethanol solution is then agitated with a sterile swab to suspend the microorganism grown on the slant. Each resulting suspension is diluted into sterile saline (1 part suspension: 9 parts sterile saline). Aliquots of these dilutions are placed in individual wells of Steer's Replicator and petri plates inoculated as previously described. The petri plates are incubated at 30° C. and read after 48 hours for yeast and 72 hours for fungi.
as §6, §7

Fusarium oxysporum = test: MIC in malt yeast agar, Fusarium oxysporum; type: cell-based, Fusarium oxysporum (ATCC 48112); details: Fo; malt yeast agar; 30° C.; 72 hours for fungi; read-out: Minimum Inhibitory Concentration (MIC)
Protocol: as §1, §8, §3, §9, §6, §7

Pseudomonas aeruginosa = test: MIC in nutrient agar, Pseudomonas aeruginosa (Pa); type: cell-based, Pseudomonas aeruginosa (ATCC 10145); details: Pa, 48 hours, read-out: Minimum Inhibitory Concentration (MIC)
Protocol: as §1, §2, §3, §4, §5, §6, §7

Saccharomyces cerevisiae = test: MIC in malt yeast agar, Saccharomyces cerevisiae; type: cell-based, Saccharomyces cerevisiae (ATCC 4105); details: Sc, malt yeast agar, 30° C., 48 hours for yeast, read-out: Minimum Inhibitory Concentration (MIC)
Protocol: as §1, §8, §3, §9, §6, §7

Penicillium chrysogenum = test: MIC in malt yeast agar, Penicillium chrysogenum; type: cell-based, Penicillium chrysogenum (ATCC 9480); details: Pc; malt yeast agar; 30° C.; 72 hours for fungi; read-out: Minimum Inhibitory Concentration (MIC)
Protocol: as §1, §8, §3, §9, §6, §7

Klebsiella pneumonias = test: MIC in nutrient agar, Klebsiella pneumonias; type: cell-based, Klebsiella pneumonias (ATCC 8308); details: Kp, 48 hours, read-out: Minimum Inhibitory Concentration (MIC)
Protocol: as §1, §2, §3, §4, §5, §6, §7

Row | MIC (Bacillus subtilis; pH 6.8, 30° C.) | MIC (Bacillus subtilis; pH 8.2, 30° C.) | MIC (Enterobacter aerogenes; pH 6.8) | MIC (Enterobacter aerogenes; pH 8.2) | MIC (Proteus vulgaris; pH 6.8, 30° C.) | MIC (Proteus vulgaris; pH 8.2, 30° C.) | MIC (Candida albicans) | MIC (Fusarium oxysporum) | MIC (Pseudomonas aeruginosa; pH 6.8, 30° C.) | MIC (Pseudomonas aeruginosa; pH 8.2, 30° C.) | MIC (Saccharomyces cerevisiae) | MIC (Penicillium chrysogenum) | MIC (Klebsiella pneumonias; pH 6.8, 30° C.) | MIC (Klebsiella pneumonias; pH 8.2, 30° C.) | SMILES | MIC (Salmonella choleraesuis; pH 6.8, 30° C.) | MIC (Salmonella choleraesuis; pH 8.2, 30° C.)
1 | 25 µg/mL (≈ 125 µM) | 100 µg/mL (≈ 499 µM) | 25 µg/mL (≈ 125 µM) | 100 µg/mL (≈ 499 µM) | 25 µg/mL (≈ 125 µM) | 100 µg/mL (≈ 499 µM) | < 1 µg/mL | 2.5 µg/mL (≈ 12.5 µM) | 50 µg/mL (≈ 250 µM) | 250 µg/mL (≈ 1250 µM) | 5 µg/mL (≈ 25 µM) | < 1 µg/mL | 25 µg/mL (≈ 125 µM) | 250 µg/mL (≈ 1250 µM) | N#CSc1nsnc1SC#N [Example 2, Bis(thiocyanato)-1,2,5-thiadiazole] | 25 µg/mL (≈ 125 µM) | 100 µg/mL (≈ 499 µM)
2 | < 10 µg/mL | < 10 µg/mL | 25 µg/mL (≈ 85.5 µM) | < 10 µg/mL | < 10 µg/mL | < 10 µg/mL | < 2.5 µg/mL | < 2.5 µg/mL | < 10 µg/mL | < 10 µg/mL | < 2.5 µg/mL | < 2.5 µg/mL | < 10 µg/mL | < 10 µg/mL | N#CSCSc1nsnc1SCSC#N [Example 4, Bis(thiomethylthiocyanato)-1,2,5-thiadiazole] | 25 µg/mL (≈ 85.5 µM) | 25 µg/mL (≈ 85.5 µM)
